Assay results as given in ChEMBL document CHEMBL1154198, “Chemical genetics of Plasmodium falciparum” (Nature, 2010).

Columns and labels:
Plasmodium falciparum [1] = experiment: ST_JUDE: Plasmodium falciparum K1 EC50 (uM) as measured by SYBR green dye; type: functional, organism-based
Plasmodium falciparum [2] = experiment: ST_JUDE: Plasmodium falciparum 3D7 EC50 (uM) as measured by SYBR green dye; type: functional, organism-based

Row | EC50 (Plasmodium falciparum [1]) [µM] | EC50 (Plasmodium falciparum [2]) [µM] | Compound
1 | 4.83 | 1.65 | CCN(CC)CCNC(=O)c1ccc2c(c1)sc1nc(-c3ccc(C)cc3)cn12
2 | 1.79 | 1.6 | Cc1cc(C)cc(Nc2nc(NCC3CCCO3)c3ccccc3n2)c1 (stereo not drawn)
3 | > 15 | 4.48 | CCOc1ccc(CCNC(=O)Nc2ccc(F)cc2)cc1OCC
4 | 9.11 | 3.46 | Fc1ccccc1Nc1nc(NCc2ccccc2)c2ccccc2n1
5 | 1.07 | > 15 | CCOc1ccc(NC(=O)C2c3cc(OC)c(OC)cc3C(=O)N(C)C2c2ccc(OC)cc2)cc1 (stereo not drawn)
6 | > 15 | > 15 | N#Cc1ccc(C(=O)N(Cc2cccnc2)c2nc3c(F)cccc3s2)cc1
7 | 4.27 | 3.69 | O=[N+]([O-])c1cccc(C2Nc3ccccc3-c3nc4ccccc4n32)c1 (stereo not drawn)
8 | 8.42 | 9.06 | CCN(CC)c1ccc(C2NC(=O)NC(O)(C(F)(F)F)C2C(=O)c2cccnc2)cc1 (stereo not drawn)
9 | 3.74 | 3.99 | CCCOc1ccc(C(NC(=O)CCl)NC(=O)CCl)cc1OC
10 | > 15 | 0.559 | COc1ccc(Nc2cc(C)nc(Nc3ccc(NS(=O)(=O)c4ccc(C)cc4)cc3)n2)cc1
11 | > 15 | 3.7 | C=C(C)CCC(C)N1CCC(n2nccc2NC(=O)Nc2ccccc2Cl)CC1 (stereo not drawn)
12 | > 15 | 8.67 | O=[N+]([O-])c1ccccc1C(Nc1ccccn1)c1cc(Cl)c2cccnc2c1O (stereo not drawn)
13 | 4.68 | > 15 | Cc1cccc(NC(=O)CSc2nc3c4ccccc4nc-3c(O)n2-c2ccc([N+](=O)[O-])cc2)c1
14 | > 15 | > 15 | CCCC1=Nc2cc(C(=O)N3CCN(C(=O)OCC)CC3)ccc2Sc2ccc(C)cc21
15 | 6.27 | 3.74 | CCC1=Nc2cc(C(=O)NCc3ccco3)ccc2Sc2ccc(Cl)cc21
16 | 0.145 | 0.163 | COc1ccc2c(c1)C=C/C(=C\c1sc3ccccc3[n+]1C)N2C
17 | 9.15 | 4.06 | CN1CCN(CCCNC(=O)c2ccc3c(c2)sc2nc(-c4ccccc4)cn23)CC1
18 | 6.67 | 3.73 | CCOc1ccc(Nc2cc(C)nc3c(C)cc(C)cc23)cc1
19 | 3.37 | 1.63 | COc1ccc(C2C(C(=O)Nc3cnc4ccccc4c3)c3ccccc3C(=O)N2C2CCCCC2)cc1 (stereo not drawn)
20 | 1.39 | > 15 | O=C(CSc1nccn1Cc1ccccc1Cl)Nc1cc(C(F)(F)F)ccc1Cl
21 | 4.75 | 4.16 | CSc1nc(SC)c2c3c(sc2n1)CN(C)CC3
22 | 1.2 | 0.973 | O=C(Nc1cccc(C(F)(F)F)c1)c1cc(Cl)ccc1O

Continued, molecule first:

Row | Compound | EC50 (Plasmodium falciparum [1]) [µM] | EC50 (Plasmodium falciparum [2]) [µM]
23 | COc1ccc2nc(C)cc(Nc3ccc(Cl)c(Cl)c3)c2c1 | 4.84 | 1.14
24 | O=C(Cc1ccc(Cl)cc1)Nc1ccc(-c2nc3ccccc3[nH]2)cc1 | > 15 | > 15
25 | Cc1cc(C)c2nc(C)cc(Nc3cccc(Cl)c3)c2c1 | 3.83 | 0.812
26 | FC(F)(F)c1cccc(NC(=S)Nc2cccc(Cl)c2)c1 | 2.95 | 3.79
27 | Oc1ccc(Cl)cc1Nc1ncnc2ccc(Br)cc12 | 3.85 | > 15
28 | O=C(N/N=C/c1ccc([N+](=O)[O-])o1)c1ccc(O)cc1 [NIFUROXAZIDE] | 3.77 | > 15
29 | COc1ccc(C2C(C#N)=C(C(C)(C)C)Nc3ncnn32)cc1 (stereo not drawn) | > 15 | 8.08
30 | COc1ccc(Cn2c(SCc3ccccc3F)nc3nccnc3c2=O)cc1 | 11.7 | 0.344
31 | CCOC(=O)C1=C(c2ccc(F)cc2)C(=O)c2ccccc2C1=O | 1.71 | 2.28
32 | CCOc1ccc(Nc2cc(C)nc3ccc(OCC)cc23)cc1 | 3.48 | 1.1
33 | CCc1c(C)nc(-n2nc(C)cc2NC(=O)c2cccc(Br)c2)nc1O | > 15 | > 15
34 | CCC[N+]1(C)CCC2C(C1)c1ccccc1N2Cc1ccccc1 (stereo not drawn) | > 15 | 4.25
35 | CCc1ccc(NC(=O)CN2N=NC3C(=O)N(c4ccc(Br)cc4)C(=O)C32)cc1 (stereo not drawn) | > 15 | > 15
36 | COc1ccc(NC(=O)Cn2ncc3c(=O)oc4ccc(C)cc4c32)cc1 | > 15 | > 15
37 | OC(CNCc1ccccc1)Cn1c2ccccc2c2ccccc21 (stereo not drawn) | 0.81 | 3.76
38 | CCCc1cc(O)nc(-n2nc(C)cc2NC(=O)c2cc(C(F)(F)F)cc(C(F)(F)F)c2)n1 | > 15 | > 15
39 | CN1CCN(c2nc(Nc3ccc(SC(F)F)cc3)c3cnn(-c4ccccc4)c3n2)CC1 | 3.72 | 1.31
40 | Cc1cccc(NC(c2cccc(Cl)c2)c2ccc3cccnc3c2O)n1 (stereo not drawn) | 3.34 | 3.47
41 | CSCCCN1C(=O)CSC1c1cnccc1-c1ccc(Br)cc1 (stereo not drawn) | 1.17 | 1.21
42 | O=C(Nc1ccc(Br)cc1)Nc1cccc(Cl)c1 | 5.49 | > 15
43 | Oc1ccc(C(=C(Cl)Cl)c2ccc(O)cc2)cc1 | 0.927 | 2.47

Row | Compound | EC50 (Plasmodium falciparum [1]) [µM] | EC50 (Plasmodium falciparum [2]) [µM]
44 | Cc1ccc(S(=O)(=O)N(CC(=O)N2CCCCCC2)Cc2ccc(Cl)cc2)cc1 | > 15 | > 15
45 | CCOCc1cc(CN2CCN(CCC(C)C)C(CCO)C2)ccc1OC (stereo not drawn) | > 15 | > 15
46 | CCCCN1COc2ccc3c(-c4ccccc4)cc(=O)oc3c2C1 | 0.598 | 1.92
47 | CC(C)c1ccccc1Oc1c(C(F)(F)F)oc2c(CN3CCCC3)c(O)ccc2c1=O | 1 | 1.58
48 | CCOC(=O)c1oc2ccccc2c1NC(=O)c1ccc(C)c([N+](=O)[O-])c1 | > 15 | > 15
49 | CCCOC(=O)c1cccc(NC(=O)C23CCC(C)(C(=O)O2)C3(C)C)c1 (stereo not drawn) | > 15 | > 15
50 | CCCCC(=O)NC(c1ccc(C(C)C)cc1)c1cc([N+](=O)[O-])c2cccnc2c1O (stereo not drawn) | 5.13 | > 15
51 | CCCCNc1ccc2cccc(O)c2n1 | 4.37 | > 15
52 | C#CCSc1c(CCCC)cnc2c1c(=O)n(C)c(=O)n2C | > 15 | > 15
53 | CCN(CC)CCCC(C)Nc1nc(C)nc2cc(Cl)ccc12 (stereo not drawn) | > 15 | 6.6
54 | COc1ccc(OC)c(/C=N/Nc2nc3ccccc3[nH]2)c1 | > 15 | 3.64
55 | COc1ccc2nc(N(Cc3cccnc3)C(=O)C3CCCCC3)sc2c1 | 2.65 | 3.51
56 | O=Cc1ccc2noc(-c3ccc(Cl)cc3)c2c1 | > 15 | > 15
57 | COc1ccc(C)c2sc(N(Cc3cccnc3)C(=O)c3ccc(C#N)cc3)nc12 | > 15 | > 15
58 | CC(C)Cc1ccc(S(=O)(=O)N2c3ccccc3CC2C)cc1 (stereo not drawn) | > 15 | > 15
59 | CCCCOC(=O)c1ccc(Nc2cc(C)nc3ccccc23)cc1 | > 15 | 3.4
60 | Oc1c(C(Nc2ccccn2)c2cccc(Oc3ccccc3)c2)ccc2cccnc12 (stereo not drawn) | 2.76 | 2.92
61 | O=C(NCCN1CCOCC1)C(=O)Nc1ccc(F)cc1F | > 15 | > 15
62 | COc1cc(Cl)c(C)cc1NC(=O)C1c2ccccc2C(=O)N(CC(C)C)C1c1cccs1 (stereo not drawn) | 0.226 | 0.166
63 | CCOC(=O)c1ccc2nc(C)cc(Nc3ccc(C)cc3C)c2c1 | > 15 | > 15
64 | CCC(=O)NC(c1ccc(N(C)C)cc1)c1ccc2cccnc2c1O (stereo not drawn) | 4.44 | 4.07
